Measurements from patent US11953435B2, “Zinc-responsive fluorophores” (Northwestern University, priority 2019, dated 2024).
“Also recorded” adds a separate entry of the source.

Tested on: C. elegans
Test: Confocal imaging of zinc in C. elegans worms
Assay type: in vivo
Description: [formula] [formula] where r(t) is the anisotropy, P(t) is the polarization, Ivv and Ivh are intensities with polarization in the vertical plane and the excitation in the vertical and horizontal planes respectively, Ihv and Ihh are intensities with polarization in the horizontal plane and the excitation in the vertical and horizontal planes respectively, and G is a g-factor that corrects for instrument sensitivity in the horizontal and vertical planes. Metal content of NMR samples. Inductively coupled plasma mass spectrometry (ICP-MS) was performed on a Thermo iCAP Q ICP-MS. 1 mg/mL of ZincBY-1 or ZincBY-4 in acetonitrile-d3 or acetonitrile-d3 only was evaporated overnight at 70° C. 150 μL of HNO3 was added and the samples were digested overnight at 70° C. Samples were diluted to a final nitric acid concentration of 3%. […] Only ^56Fe and ^64Zn were detected in the samples above background levels. […] Calculated spectra were broadened by Gaussians of width 0.2 eV, and red shifted by 0.64 eV to better match the experimental spectra per Momeni and Brown (Ref. B7; incorporated by reference in its entirety). […] Wildtype strain Bristol N2 was used as a control strain in fluorescence microscopy experiments. […] III; ruIs57[unc-119(+) pie-P1^promoter:GFP::tubulin] was used as a marker for cortical granules in fluorescence microscopy experiments. […]

With `CC(=O)NCCOc1ccc2n1[B-](F)(F)[N+]1=C(N(CCN(Cc3ccccn3)Cc3ccccn3)Cc3ccccn3)C=CC1=C2c1c(C)cc(C)cc1C` [ZincBY-4, N-(2-((7-((2-(bis(pyridin-2-ylmethyl)amino)ethyl)(pyridin-2-ylmethyl)amino)-5,5-difluoro-10-mesityl-5H-5λ4,6λ4-dipyrrolo[1,2-c:2′,1′-f][1,3,2]diazaborinin-3-yl)oxy)ethyl)acetamide] as the molecule, how does the “fluorescence pattern in stained worms” value (ZincBY-4 stained worms) read?
The value was “pattern of increasing fluorescence intensity as oocytes progress through the gonad”.

And the “spectral overlap with GFP in C. elegans” value (single excitation at 488 nm)?
The value was “small amount of ZincBY-4 emission detected in the 495-530 nm emission channel; also recorded: very little overlap of ZincBY-4 in the GFP detection channel”.
